Laboratory results as given in patent publication US9950067B2, “Trans carotenoids, their synthesis, formulation and uses” (Diffusion Pharmaceuticals, LLC, priority 2005, dated 2018).
“And” between values parts separate entries of the source, which are not always exact repeats. Identical values can stand only once. “Also recorded” adds a separate entry of the source. Like-named read-outs stand apart in the source and are kept apart here.

Columns and labels:
[1] = Solubility in water and aqueous formulations; format: physicochemical
Protocol: Formulation of TSC with Cyclodextrin-Mannitol • 1. Make up a solution containing equal-molar concentrations of the cyclodextrin and the TSC. Solutions containing over 20 mg TSC/ml of solution can be made this way. First, add the cyclodextrin to an injectable water, then add the TSC to that solution. • 2. Add d-mannitol, so that the final concentration is around 20 to 50 mg/ml of mannitol in solution. • 3. This solution can be added to isotonic saline in order to dilute it and still maintain the proper osmolality. Either add the solution to saline or add saline to the solution.
Formulation of TSC with Mannitol/Acetic Acid • 1. Make up a 0.01 M acetic acid solution in distilled water. • 2. […] Add the 0.0005 M acetic acid solution, slowly, to TSC. […] Add d-mannitol to above solution at a concentration of 50 mg/ml in order to obtain the proper osmolality. The pH of this solution is around 8 to 8.5. It should be close to being an isotonic solution, and, as such, can be injected directly into the blood stream.

[2] = natural bipolar carotenoids, background; cited from earlier work
[3] = Pulmonary administration, absorption into the blood stream; format: in vivo, rats
Protocol: In this method, the rats were intubated and a small volume (0.1 mL usually) of the TSC solution was injected followed by two 3-mL puffs of air.
Additional studies have been done with pulmonary dosing in which the effect of the volume of liquid injected into the trachea as well as using TSC in its formulated drug product form were investigated. The formulated drug product contained 8% γ-cyclodextrin, 2.3% mannitol and 50 mM glycine and 20 mg/mL TSC, reconstituted in sterile water. Sterile saline (0.9%) was added as a diluent in these studies in order to achieve the desired dosages. The same dose (937 μg/kg) was administered to all rats.

[4] = Intramuscular administration, absorption into the blood stream; format: in vivo, rats
Protocol: TSC is not absorbed via an intramuscular route when simply dissolved in de-ionized water; however, the addition of a cyclodextrin (as in the formulated drug product) results in absorption into the blood stream. Small volumes (0.05 mL) were injected into each thigh muscle of rats with TSC formulated with 2-hydroxypropyl-β-cyclodextrin or γ-cyclodextrin and dissolved in water.

[5] = Oral administration, plasma concentrations; format: in vivo, rats; conditions: with γ-cyclodextrin
Protocol: PE-50 tubing was used to deliver formulated TSC into the stomachs of rats, and plasma concentrations were measured after that. Rats were fasted for 24 hours prior to each experiment. Water was given ad libitum and coprophagy was prevented by using cages with wire-mesh floors. One study involved rats that were allowed food ad libitum after TSC administration and another study involved rats in which food was withheld after TSC administration.

[6] = tested on: rats subjected to hemorrhagic shock; test: Treatment of hemorrhagic shock; format: in vivo; conditions: for treatment of hemorrhagic shock: rats
[7] = Preclinical study of myocardial infarction; format: in vivo; conditions: injected intravenously
[8] = Stability of TSC in formulation versus pH; conditions: aqueous formulation
[9] = tested on: HCT116 human colon carcinoma tumors; test: Radiation sensitization of tumors grown on mice
Protocol: There were six study groups of five mice per group (for a total of 30 mice) designated Study Groups 1 through 6. All mice in the study were injected intravenously with either a TSC dose or a saline control for five successive days. As shown below, Study Groups 1, 2 and 3 received TSC doses A, B and C, which corresponds to 0.07, 0.14 and 0.28 mg/kg respectively for the study B, and 1.35, 0.54 and 0.18 mg/kg respectively for the study A.
Group 4 was injected as a saline control. At 45 minutes post-injection on each of the five successive days, the tumors of Study Groups 1-4 received 2 Gy irradiation. Study Group 5 received TSC only and Study Group 6 received saline only, and neither Study Group 5 nor 6 received irradiation. Tumor volumes in all Study Groups were measured weekly for the earlier of 4 weeks or until the tumors reached 4 times the volume at the start of treatment.

[10] = pulmonary, formulated drug product, 937 μg/kg

For `CCOC(=O)/C(C)=C/C=C/C(C)=C/C=C/C=C(C)/C=C/C=C(\C)C(=O)OCC` [Compound E, Diethyl 2,6,11,15-Tetramethyl-hexadeca-2E,4E,6E,8E,10E,12E,14E-heptaene-1,16-diotate], which “solubility” value ([1]; in water and in THF) is on record?
The value was “poorly soluble”.

For `CC(/C=C/C=C(\C)C(=O)O)=C\C=C\C=C(C)\C=C\C=C(/C)C(=O)O` [crocetin], which “solubility in water” value [2] is on record?
The value was “only sparingly soluble in water”.

For `CC(/C=C/C=C(\C)C(=O)O[C@@H]1O[C@H](CO[C@@H]2O[C@H](CO)[C@@H](O)[C@H](O)[C@H]2O)[C@@H](O)[C@H](O)[C@H]1O)=C\C=C\C=C(C)\C=C\C=C(/C)C(=O)O[C@@H]1O[C@H](CO[C@@H]2O[C@H](CO)[C@@H](O)[C@H](O)[C@H]2O)[C@@H](O)[C@H](O)[C@H]1O` [crocin], which “solubility in water” value [2] is on record?
Its value is “significant solubility in water”.

With `CC(/C=C/C=C(\C)C(=O)[O-])=C\C=C\C=C(C)\C=C\C=C(/C)C(=O)[O-].[Na+].[Na+]` [TSC, trans sodium crocetinate] as the molecule, how does the solubility ([1]; 0.0005 M acetic acid solution, aqueous buffer, thermodynamic from solid, read-out: Maximum solubility) read?
The solubility was 6000 to 6500 µg/mL.

And the “dissolution in acetic acid” value ([1]; 0.001 M acetic acid)?
Its value is “doesn't dissolve”.

What about the “TSC content of aqueous solution” value ([1]; TSC and gamma-cyclodextrin) of the same molecule?
The value was ≤ 44 milligrams of TSC per ml of solution.

And the “TSC content of solution” value ([1]; formulated with cyclodextrin and mannitol)?
Its value is “over 20 mg TSC/ml of solution”.

And the “solubility in water” value ([1]; water)?
Its value is “soluble in water”.

What about the “pulmonary absorption without cyclodextrin” value ([3]; TSC in pH'd di-water) of the same molecule?
Its value is “successful absorption into the blood stream”.

What about the “effect of larger injection volume of the same dose on bioavailability” value ([3]; pulmonary, 937 μg/kg) of the same molecule?
The value was “greater bioavailability”.

And the “effect of γ-cyclodextrin on absorption into the systemic circulation” value [3, 10]?
The value was “enhances absorption”.

And the “effect of γ-cyclodextrin on plasma clearance” value [3, 10]?
The value was “increasing plasma clearance”.

And the “time to reach the maximum plasma concentration” value ([3]; rats, pulmonary)?
The value was less than 5 min.

And the bioavailability ([4]; rat, plasma, im, 3347 μg/kg body weight, rats, intramuscular 3347 μg/kg with 14 mg 2-hydroxypropyl-β-cyclodextrin per kg)?
Its bioavailability is 27%.

What about the “peak plasma TSC concentration” value ([4]; rats, intramuscular 3347 μg/kg with 14 mg 2-hydroxypropyl-β-cyclodextrin per kg) of the same molecule?
The value was 4.8 µg/mL.

What about the “absorption via intramuscular route” value ([4]; simply dissolved in de-ionized water) of the same molecule?
The value was “not absorbed”.

What about the “absorption via intramuscular route” value ([4]; with γ-cyclodextrin) of the same molecule?
Its value is “successful absorption into the systemic circulation; also recorded: absorbed into the blood stream”.

And the “effect of γ-cyclodextrin on oral absorption” value [5]?
Its value is “enhances absorption”.

What about the “effect on tachycardia” value ([6]; rats subjected to hemorrhagic shock) of the same molecule?
Its value is “reduce tachycardia”.

What about the “treatment of hemorrhagic shock” value ([6]; intramuscular injection) of the same molecule?
The value was “successfully treated”.

What about the “treatment of hemorrhagic shock” value ([6]; pulmonary route) of the same molecule?
The value was “successfully treated”.

What about the “effect on ventricular fibrillation” value [7] of the same molecule?
The value was “prevented ventricular fibrillation”.

And the “stability versus pH” value [8]?
Its value is “more stable at higher pHs”.

What about the optimal dosage ([9]; Study A, i.v. 5 days, 2 Gy irradiation 45 minutes post-injection) of the same molecule?
The optimal dosage was 0.18 mg/kg.

And the “dosages that worked equally well” value ([9]; Study B, i.v. 5 days, 2 Gy irradiation 45 minutes post-injection)?
The value was 0.07 mg/kg and 0.14 mg/kg.

What about the “effect on tumor growth” value ([9]; TSC alone, no irradiation, FIG. 3) of the same molecule?
Its value is “does not appreciably affect tumor growth”.
